# Results published in US20230051589A1, “COMPOUNDS AND COMPOSITIONS FOR TREATING CONDITIONS ASSOCIATED WITH NLRP ACTIVITY” (Novartis AG, priority 2018, published 2023).
# pIC50: −log10 of the molar value.
# Test system: IL-1β production in PMA-differentiated THP-1 cells
# Assay: IL-1β production in PMA-differentiated THP-1 cells stimulated with gramicidin (hTHP-1 assay, 2% fetal bovine serum; Procedures 1-3)
# Type: cell-based, human
# Settings: Homo sapiens, THP-1, hTHP-1 assay containing 2% fetal bovine serum, Table B2, class symbols; read-out: IC50
# Experimental: The following protocol is suitable for testing the activity of the compounds disclosed herein.
# Procedure 1: IL-1β Production in PMA-Differentiated THP-1 Cells Stimulated with Gramicidin.
# THP-1 cells were purchased from the American Type Culture Collection and sub-cultured according to instructions from the supplier. Cells were cultured in complete RPMI 1640 (containing 10% heat inactivated FBS, penicillin (100 units/ml) and streptomycin (100 μg/ml)), and maintained in log phase prior to experimental setup. Prior to the experiment, compounds were dissolved in dimethyl sulfoxide (DMSO) to generate a 30 mM stock. The compound stock was first pre-diluted in DMSO to 3, 0.34, 0.042 and 0.0083 mM intermediate concentrations and subsequently spotted using Echo550 liquid handler into an empty 384-well assay plate to achieve desired final concentration (e.g. 100, 33, 11, 3.7, 1.2, 0.41, 0.14, 0.046, 0.015, 0.0051, 0.0017 μM). DMSO was backfilled in the plate to achieve a final DMSO assay concentration of 0.37%. The plate was then sealed and stored at room temperature until required.
# THP-1 cells were treated with PMA (Phorbol 12-myristate 13-acetate) (20 ng/ml) for 16-18 hours. On the day of the experiment the media was removed and adherent cells were detached with trypsin for 5 minutes. Cells were then harvested, washed with complete RPMI 1640, spun down, and resuspended in RPMI 1640 (containing 2% heat inactivated FBS, penicillin (100 units/ml) and streptomycin (100 μg/ml). The cells were plated in the 384-well assay plate containing the spotted compounds at a density of 50,000 cells/well (final assay volume 50 μl). Cells were incubated with compounds for 1 hour and then stimulated with gramicidin (5 μM) (Enzo) for 2 hours. Plates were then centrifuged at 340 g for 5 min. Cell free supernatant (40 μL) was collected using a 96-channel PlateMaster (Gilson) and the production of IL-1β was evaluated by HTRF (cisbio). The plates were incubated for 18 h at 4° C. and read using the preset HTRF program (donor emission at 620 nm, acceptor emission at 668 nm) of the SpectraMax i3x spectrophotometer (Molecular Devices, software SoftMax 6). A vehicle only control and a dose titration of CRID3 (100-0.0017 μM) were run concurrently with each experiment.
# Procedure 2: IL-1β Production in PMA-Differentiated THP-1 Cells Stimulated with Gramicidin.
# THP-1 cells were purchased from the American Type Culture Collection and sub-cultured according to instructions from the supplier. Prior to experiments, cells were cultured in complete RPMI 1640 (containing 10% heat inactivated FBS, penicillin (100 units/ml) and streptomycin (100 μg/ml)), and maintained in log phase prior to experimental setup. Prior to the experiment THP-1 were treated with PMA (Phorbol 12-myristate 13-acetate) (20 ng/ml) for 16-18 hours. Compounds were dissolved in dimethyl sulfoxide (DMSO) to generate a 30 mM stock. On the day of the experiment the media was removed and adherent cells were detached with trypsin for 5 minutes. Cells were then harvested, washed with complete RPMI 1640, spun down, resuspended in RPMI 1640 (containing 2% heat inactivated FBS, penicillin (100 units/ml) and streptomycin (100 μg/ml) . The cells were plated in a 384-well plate at a density of 50,000 cells/well (final assay volume 50 μl). Compounds were first dissolved in assay medium to obtain a 5× top concentration of 500 μM. 10 step dilutions (1:3) were then undertaken in assay medium containing 1.67% DMSO. 5× compound solutions were added to the culture medium to achieve desired final concentration (e.g. 100, 33, 11, 3.7, 1.2, 0.41, 0.14, 0.046, 0.015, 0.0051, 0.0017 μM). Final DMSO concentration was at 0.37%. Cells were incubated with compounds for 1 hour and then stimulated with gramicidin (5 μM) (Enzo) for 2 hours. Plates were then centrifuged at 340 g for 5 min. Cell free supernatant (40 μL) was collected using a 96-channel PlateMaster (Gilson) and the production of IL-1β was evaluated by HTRF (cisbio). […]
row,pIC50,Structure (SMILES)
1,4.52 to 5.30,"N[S@](=O)(=NC(=O)Nc1c2c(cc3c1CCC3)CCC2)c1ccc(C2CCNC2)cc1F (single isomer, unassigned) [Example 501, (S) or (R)-2-fluoro-N′-((1,2,3,5,6,7-hexahydro-s-indacen-4-yl)carbamoyl)-4-(pyrrolidin-3-yl)benzenesulfonimidamide]"
2,6.00 to 6.70,"N[S@@](=O)(=NC(=O)Nc1c2c(cc3c1CCC3)CCC2)c1ccc(C2CCNC2)cc1F (single isomer, unassigned) [Example 502, (R) or (S)-2-fluoro-N′-((1,2,3,5,6,7-hexahydro-s-indacen-4-yl)carbamoyl)-4-(pyrrolidin-3-yl)benzenesulfonimidamide]"

# Same assay, conditions: Table B1; hTHP-1 assay containing 2% fetal bovine serum, gramicidin stimulation, IL-1β readout; read-out: hTHP-1 IC50 (average)
row,pIC50,Structure (SMILES)
1,6.00 to 6.70,"CN(C)Cc1ccc(S(N)(=O)=NC(=O)Nc2c3c(cc4c2CCC4)CCC3)nc1 (single isomer, unassigned) [Example 413, (R) or (S)-5-((dimethyl-amino)methyl)-N′-((1,2,3,5,6,7-hexahydro-s-indacen-4-yl)carbamoyl)-pyridine-2-sulfonimid-amide]"
2,6.70 to 7.40,"CC(C)(O)c1ncc(S(N)(=O)=NC(=O)Nc2cc3c(c4c2CCC4)CCC3)s1 (single isomer, unassigned) [Example 419, (R) or (S)-N′-((1,2,3,6,7,8-hexahydro-as-indacen-4-yl)carbamoyl)-2-(2-hydroxypropan-2-yl)thia-zole-5-sulfonimidamide]"
3,7.40 to 8.10,"[2H]C1([2H])CCc2cc3c(c(NC(=O)N=S(N)(=O)c4cnc(C(C)(C)O)s4)c21)C([2H])([2H])CC3 (single isomer, unassigned) [Example 421, (R) or (S)-N′-((1,2,3,5,6,7-hexahydro-s-indacen-4-yl-3,3,5,5-d4)carbamoyl)-2-(2-hydroxypropan-2-yl)-thiazole-5-sulfonimidamide]"
4,7.40 to 8.10,"[2H]C1([2H])CCc2c1cc1c(c2NC(=O)N=S(N)(=O)c2cnc(C(C)(C)O)s2)CCC1([2H])[2H] (single isomer, unassigned) [Example 423, (R) or (S)-N′-((1,2,3,5,6,7-hexahydro-s-indacen-4-yl-1,1,7,7-d4)carbamoyl)-2-(2-hydroxypropan-2-yl)-thiazole-5-sulfonimidamide]"

# Same assay, conditions: hTHP-1 assay containing 2% fetal bovine serum, Table B2, class symbols; read-out: IC50
row,pIC50,Structure (SMILES)
1,6.70 to 7.40,"NS(=O)(=NC(=O)Nc1c2c(cc3c1CCC3)CCC2)c1cnn2c1OC[C@H](O)C2 (single isomer, unassigned) [Example 515, (R,6R) or (S,6R)-N′-((1,2,3,5,6,7-hexahydro-s-indacen-4-yl)carbamoyl)-6-hydroxy-6,7-dihydro-5H-pyrazolo[5,1-b] [1,3]oxazine-3-sulfonimidamide]"
2,5.30 to 6.00,"NS(=O)(=NC(=O)Nc1c2c(cc3c1CCC3)CCC2)c1cnn2c1OC[C@H](O)C2 (single isomer, unassigned) [Example 516, (S,6R) or (R,6R)-N′-((1,2,3,5,6,7-hexahydro-s-indacen-4-yl)carbamoyl)-6-hydroxy-6,7-dihydro-5H-pyrazolo[5,1-b] [1,3]oxazine-3-sulfonimidamide]"
3,4.52 to 5.30,"CN(C)Cc1cnc(S(N)(=O)=NC(=O)Nc2c3c(cc4c2CCC4)CCC3)c(F)c1 (single isomer, unassigned) [Example 517, (S) or (R)-5-((dimethylamino)methyl)-3-fluoro-N′-((1,2,3,5,6,7-hexahydro-s-indacen-4-yl)carbamoyl)pyridine-2-sulfonimidamide]"
4,5.30 to 6.00,"CN(C)Cc1cnc(S(N)(=O)=NC(=O)Nc2c3c(cc4c2CCC4)CCC3)c(F)c1 (single isomer, unassigned) [Example 518, (R) or (S)-5-((dimethylamino)methyl)-3-fluoro-N′-((1,2,3,5,6,7-hexahydro-s-indacen-4-yl)carbamoyl) pyridine-2-sulfonimidamide]"
5,6.00 to 6.70,"NS(=O)(=NC(=O)Nc1c2c(cc3c1CC3)CCC2)c1ccc(CN2CCC2)cc1F (single isomer, unassigned) [Example 524, (R) or (S)-4-(azetidin-1-ylmethyl)-2-fluoro-N′-((2,4,5,6-tetrahydro-1H-cyclobuta[f]inden-3 - yl)carbamoyl) benzenesulfonimidamide]"
6,4.52 to 5.30,"NS(=O)(=NC(=O)Nc1c2c(cc3c1CC3)CCC2)c1ccc(CN2CCC2)cc1F (single isomer, unassigned) [Example 525, (S) or (R)-4-(azetidin-1-ylmethyl)-2-fluoro-N′-((2,4,5,6-tetrahydro-1H-cyclobuta[f]inden-3 - yl)carbamoyl) benzenesulfonimidamide]"

# The remaining lines, values behind:
row,Structure (SMILES),pIC50
1,"CC(C)(O)c1cc(F)c(S(N)(=O)=NC(=O)Nc2c3c(cc4c2CC4)CCC3)s1 (single isomer, unassigned) [Example 432]",7.40 to 8.10
2,"CC(C)(O)c1cc(F)c(S(N)(=O)=NC(=O)Nc2c3c(cc4c2CC4)CCC3)s1 (single isomer, unassigned) [Example 433]",6.00 to 6.70
3,"Cc1c(C2CC2)cc2c(c1NC(=O)N=[S@@](N)(=O)c1cc(C(C)(C)O)cs1)CCC2 (single isomer, unassigned) [Example 498, (R) or (S)-N′-((6-cyclopropyl-5-methyl-2,3-dihydro-1H-inden-4-yl)carbamoyl)-4-(2-hydroxyprepan-2-yl)thiophene-2-sulfonimidamide]",7.40 to 8.10
4,"CNCC(C)(C)c1ccc(S(N)(=O)=NC(=O)Nc2c3c(cc4c2CCC4)CCC3)cc1 (single isomer, unassigned) [Example 519, (R) or (S)-N′-((1,2,3,5,6,7-hexahydro-s-indacen-4-yl)carbamoyl)-4-(2-methyl-1-(methylamino)propan-2-yl) benzenesulfonimidamide]",5.30 to 6.00
5,"CNCC(C)(C)c1ccc(S(N)(=O)=NC(=O)Nc2c3c(cc4c2CCC4)CCC3)cc1 (single isomer, unassigned) [Example 520, (S) or (R)-N′-((1,2,3,5,6,7-hexahydro-s-indacen-4-yl)carbamoyl)-4-(2-methyl-1-(methylamino)propan-2-yl) benzenesulfonimidamide]",4.52 to 5.30
6,"Cc1c(C2CC2)cc2c(c1NC(=O)N=[S@](N)(=O)c1cc(C(C)(C)O)cs1)CCC2 (single isomer, unassigned) [Example 521, (S) or (R)-N′-((6-cyclopropyl-5-methyl-2,3-dihydro-1H-inden-4-yl)carbamoyl)-4-(2-hydroxyprepan-2-yl)thiophene-2-sulfonimidamide]",5.30 to 6.00
7,"CC(C)(O)c1cncc(S(N)(=O)=NC(=O)Nc2c3c(c(C#N)c4c2CCC4)CCC3)c1 (single isomer, unassigned) [Example 522, (R) or (S)-N′-((8-cyano-1,2,3,5,6,7-hexahydro-s-indacen-4-yl)carbamoyl)-5-(2-hydroxypropan-2-yl)pyridine-3-sulfonimidamide]",6.00 to 6.70
8,"CC(C)(O)c1cncc(S(N)(=O)=NC(=O)Nc2c3c(c(C#N)c4c2CCC4)CCC3)c1 (single isomer, unassigned) [Example 523, (S) or (R)-N′-((8-cyano-1,2,3,5,6,7-hexahydro-s-indacen-4-yl)carbamoyl)-5-(2-hydroxypropan-2-yl)pyridine-3-sulfonimidamide]",4.52 to 5.30
9,"CC(C)c1cc2c(cc1NC(=O)N=S(N)(=O)c1cnc(C(C)(C)O)s1)CCC2 (single isomer, unassigned) [Example 526, (R) or (S)-2-(2-hydroxypropan-2-yl)-N′-((6-isopropyl-2,3-dihydro-1H-inden-5-yl)carbamoyl)thiazole-5-sulfonimidamide]",6.00 to 6.70
